Read-outs that look alike come from different tables or passages of the source.
Key:
[1] = tested on: SSTR2-expressing rat pancreatic adenocarcinoma AR42J cells; test: Cell uptake assay; format: cell-based; conditions: 120 min
Protocol: AR42J cells were grown to >90% confluence. One million cells/well were seeded overnight on 6-well plates. The growth media was removed, and the reaction media (1 mL) containing [^18F]14 (11 kBq, 10 pmol per well) or [^18F]15 (97 kBq, 40 pmol per well) was added. Additionally, cells were coincubated with 2.4 nmol per well of nonmodified octreotide for blocking of radiotracer uptake. Radioactivity in the free, membrane-bound, and internalized fractions was determined at designated time points (15, 30, 60, and 120 min) by treating the cells in a sequence of (1) ice-cold 0.01 M PBS, (2) glycine buffer, and (3) 1 M NaOH, respectively. The fractions were collected and measured with a γ-counter. The detailed protocol is given in the Supporting Information. […]
where Acoct=radioactivity concentration of octanol and AcPBS=radioactivity concentration of PBS. The datapoints were presented as mean ± standard deviation.
AR42J cell-uptake assay and mouse tumor model. Rat pancreatic tumor cell line AR42J that expresses SSTR2, was cultured at 37 °C in 95% relative humidity incubator containing 5% CO2. Cells grown to >90% confluence were used for either in vitro or in vivo experiments.
One million cells/well were seeded overnight on 6-well plates. The growth media was removed and the medium (1 mL/well) containing [18F]14 (11 kBq, 10 pmol per well) or [18F]15 (97 kBq, 40 pmol per well) was added. For studying the specificity of the cell -uptake, a set of cells were co-incubated in the presence of 2.4 nmol per well of non -modified octreotide representative of blocking conditions (total volume ~1 mL). For determining the amount of the radiotracer in the free fraction, at the designated time-points (15, 30, 60 and 120 min) the incubated media were removed, collected to a 5 mL scintillation tube, cells were washed with 1 mL of cold 0.01 M PBS (1×PBS) and again the supernatant collected into the same scintillation tube. Membrane-bound fraction; ice-cold glycine buffer (1 mL) was added on the cells, incubated for 5 minutes on ice, supernatant removed (procedure repeated once more) and the cells washed with ice -cold 1×PBS, and all washing solutions were collected to the same scintillation tube. Internalized fraction; 1 M NaOH (1 mL) was added on the cells and left incubating at an ambient temperature for 10 min. The supernatant was removed, the wells were washed 2 × 1 mL of cold 0.01 M PBS, and the supernatants collected to the same microtube. The collected samples were measured with a gamma counter for measuring the counts per minute (CPM) of each fraction (n = 3). The internalization is presented in percent (%) normalized to the total radioactivity in all three

[2] = tested on: AR42J xenografts; test: Ex vivo biodistribution of [18F]14 and [18F]15; format: in vivo, Rj:NMRI-Foxn1^nu/nu mice
Protocol: (§1) [^18F]14 and [^18F]15 in ≤4% ethanol–0.01 M PBS were administered intravenously (1.2 ± 0.0 and 2.0 ± 0.1 MBq, respectively, 0.2 nmol, 150 μL) to AR42J tumor-bearing Rj:NMRI-Foxn1^nu/nu mice. At predetermined time points (t = 30, 60, 120, and 240 min), animals were euthanized with CO2 asphyxiation and cervical dislocation, and then the organs were harvested, washed with water, and blotted dry, following with weighing and γ counting from which the % ID/g in tissues was determined.

[3] = Ex vivo biodistribution of [18F]14 and [18F]15; format: in vivo, Rj:NMRI-Foxn1^nu/nu mice; conditions: mouse, iv, 0.2 nmol; for tissue uptake at 1 h / tissue uptake at 2 h: i.v.; for tissue uptake at 2 h: 120 min post injection
Protocol: as §1

[4] = Hydrolytic stability in 0.01 M PBS / formulated solution (radio-HPLC); format: physicochemical; conditions: 4% ethanol-0.01 M PBS (pH 7.4), sampled at 9 h
Protocol: Lipophilicity was determined with the shake-flask method as a distribution coefficient between 0.01 M PBS and octanol. Purified radiotracer [^18F]6 (10 μL, ∼200 kBq, 1.5 nmol), [^18F]14 (20 μL, ∼260 kBq, 125 pmol), or [^18F]15 (20 μL, 144 kBq, 67 pmol) in a polypropylene tube containing 1500–2000 μL of each in a 1:1 mixture (1-octanol, 0.02 M PBS, pH 7.4) was shaken mechanically (500 rpm, 10 min) and centrifuged (1000g, 5 min), and samples from each layer (400 μL, n = 4) were measured with a γ-counter. The log D7.4 was calculated as a distribution between the two layers at pH 7.4. [^18F]6 (10 MBq, 40 nmol) diluted with 0.01 M PBS at pH 7.4 (≤1% ethanol, 5300 μL) was incubated for 180 min. At selected time points (5, 30, 60, 90, 120, 150, and 180 min), a sample (100 μL) was injected to radio-HPLC. [^18F]14 and [^18F]15 (29 MBq, 10 nmol) diluted in 2000 μL of 0.01 M PBS (≤1% ethanol) were left to incubate. A sample of [^18F]14 (100 μL) after 9 hours and [^18F]15 at selected time points between 30 and 335 min were injected into HPLC (method A). [^18F]15 (0.6 MBq, 0.134 nmol, 200 μL) formulated in ≤5% EtOH-1 × PBS was added and incubated in 2000 μL of PBS-50% human plasma at 37 °C. A 100 μL sample (at 60, 120, 180, and 240 min, n = 2) was diluted with 200 μL of cold acetonitrile and centrifuged (10,000g, 5 min). After centrifugation, a 100 μL sample of the supernatant was injected for radio-HPLC analysis.

C[C@@H](O)[C@@H]1NC(=O)[C@H](CCCCN)NC(=O)[C@@H](Cc2c[nH]c3ccccc23)NC(=O)[C@H](Cc2ccc(O)cc2)NC(=O)[C@@H](NC(=O)[C@@H](Cc2ccccc2)NC(=O)CCOCCOCCOCCOCCON=Cc2ccc(CNC(=O)OC3CCCc4cnnc(-c5ccc(CC(=O)NCC[N+](C)(C)C[B-](F)(F)F)cc5)c4CC3)cc2)CSSC[C@@H](C(=O)N[C@H](CO)[C@@H](C)O)NC1=O (stereo partly shown) [[^18F]14]
cell uptake, baseline ([1]; n = 3, % internalized): 1.0 ± 0.2% | cell uptake, blocking ([1]; n = 3, coincubation with excess octreotide): 0.5 ± 0.1% | urine ([2]; 60 min post injection, i.v., baseline): 84.9 ± 58.6 % ID/g | defluorination in vivo (in words) ([2]; judged from bone uptake): A minor degree of defluorination could not be ruled out | tissue to tissue ratio at 1 h ([3]; Rj:NMRI-Foxn1^nu/nu, tumor (AR42J xenograft) / blood, total radioactivity, 60 min post injection, baseline, read-out: T/blood ratio): 0.3 | tissue uptake at 1 h ([3]; 60 min post injection, baseline, read-out: blood): 10.2 ± 2.3 %ID/g | tissue uptake at 1 h ([3]; 60 min post injection, baseline, read-out: brain): 0.3 ± 0.1 %ID/g | tissue uptake at 1 h ([3]; 60 min post injection, baseline, read-out: gallbladder): 17.8 ± 5.2 %ID/g | tissue uptake at 1 h ([3]; 60 min post injection, baseline, read-out: heart): 2.4 ± 0.7 %ID/g | tissue uptake at 1 h ([3]; 60 min post injection, baseline, read-out: kidney): 14.3 ± 4.5 %ID/g | tissue uptake at 1 h ([3]; 60 min post injection, baseline, read-out: liver): 30 ± 9.4 %ID/g | tissue uptake at 1 h ([3]; 60 min post injection, baseline, read-out: lung): 6.2 ± 2.4 %ID/g | tissue uptake at 1 h ([3]; 60 min post injection, baseline, read-out: muscle): 0.6 ± 0.2 %ID/g | tissue uptake at 1 h ([3]; 60 min post injection, baseline, read-out: pancreas): 1.1 ± 0.2 %ID/g | tissue uptake at 1 h ([3]; 60 min post injection, baseline, read-out: skin): 2.1 ± 0.9 %ID/g | tissue uptake at 1 h ([3]; 60 min post injection, baseline, read-out: spleen): 1.2 ± 0.5 %ID/g | tissue uptake at 1 h ([3]; 60 min post injection, baseline, read-out: urine): ~85 %ID/g | tissue uptake at 1 h ([3]; 60 min post injection, blocked with octreotide, read-out: blood): 7.4 ± 1.5 %ID/g | tissue uptake at 1 h ([3]; 60 min post injection, blocked with octreotide, read-out: brain): 0.3 ± 0.1 %ID/g | tissue uptake at 1 h ([3]; 60 min post injection, blocked with octreotide, read-out: gallbladder): 10.7 ± 6.3 %ID/g | tissue uptake at 1 h ([3]; 60 min post injection, blocked with octreotide, read-out: heart): 1.9 ± 0.4 %ID/g | tissue uptake at 1 h ([3]; 60 min post injection, blocked with octreotide, read-out: kidney): 11.4 ± 3.7 %ID/g | tissue uptake at 1 h ([3]; 60 min post injection, blocked with octreotide, read-out: liver): 26.2 ± 15.8 %ID/g | tissue uptake at 1 h ([3]; 60 min post injection, blocked with octreotide, read-out: lung): 5.5 ± 2.7 %ID/g | tissue uptake at 1 h ([3]; 60 min post injection, blocked with octreotide, read-out: muscle): 0.5 ± 0.1 %ID/g | tissue uptake at 1 h ([3]; 60 min post injection, blocked with octreotide, read-out: pancreas): 0.8 ± 0.5 %ID/g | tissue uptake at 1 h ([3]; 60 min post injection, blocked with octreotide, read-out: skin): 1.6 ± 0.4 %ID/g | tissue uptake at 1 h ([3]; 60 min post injection, blocked with octreotide, read-out: spleen): 0.9 ± 0.1 %ID/g | tissue uptake at 1 h ([3]; 60 min post injection, blocked with octreotide, read-out: urine): 41.9 ± 15.7 %ID/g | tissue uptake at 1 h ([3]; large intestine with contents, 60 min post injection, baseline, read-out: L. I. (+cont.), large intestine): 1.1 ± 1.1 %ID/g | tissue uptake at 1 h ([3]; large intestine with contents, 60 min post injection, blocked with octreotide, read-out: L. I. (+cont.), large intestine): 0.7 ± 0.3 %ID/g | tissue uptake at 1 h ([3]; occipital bone, 60 min post injection, blocked with octreotide, read-out: bone, occipital): 1.1 ± 0.5 %ID/g | tissue uptake at 2 h ([3]; occipital bone, read-out: bone, occipital): 1.7 ± 0.1 %ID/g | tissue uptake at 1 h ([3]; small intestine with contents, 60 min post injection, baseline, read-out: S. I. (+cont.), small intestines): 2.6 ± 0.8 %ID/g | tissue uptake at 1 h ([3]; small intestine with contents, 60 min post injection, blocked with octreotide, read-out: S. I. (+cont.), small intestines): 1.9 ± 0.4 %ID/g | tissue uptake at 1 h ([3]; stomach with contents, 60 min post injection, baseline, read-out: stomach (+cont.)): 0.6 ± 0.2 %ID/g | tissue uptake at 1 h ([3]; stomach with contents, 60 min post injection, blocked with octreotide, read-out: stomach (+cont.)): 0.6 ± 0.2 %ID/g | tissue uptake at 1 h ([3]; tibia bone, 60 min post injection, baseline, read-out: bone, tibia): 1.3 ± 0.6 %ID/g | tissue uptake at 1 h ([3]; tibia bone, 60 min post injection, blocked with octreotide, read-out: bone, tibia): 1 ± 0.6 %ID/g | tissue uptake at 2 h ([3]; tibia bone, read-out: bone, tibia): 2.9 ± 1.4 %ID/g | tissue uptake at 1 h ([3]; tumor, AR42J xenograft, 60 min post injection, baseline, read-out: tumor uptake): 3.1 ± 0.7 %ID/g | tissue uptake at 1 h ([3]; tumor, AR42J xenograft, 60 min post injection, blocked with octreotide, read-out: tumor uptake): 2.2 ± 0.6 %ID/g | stability in the formulated solution [4]: stable
